For series [1], the system named is M. tuberculosis H37Rv (ATCC 25618). Kind of series: HT-SPOTi growth inhibition (MIC), M. tuberculosis H37Rv. The class given is cell-based. The following applies: Mycobacterium tuberculosis; HT-SPOTi agar assay; read-out: MIC Mtb H37Rv.
Series [2] deals with M. bovis BCG (ATCC 35734). The settings on record: ref Gupta and Bhakta, 2012; cited from earlier work.
Series [3] has as its target recombinant Mycobacterium marinum N-acetyltransferase (MMNAT) (Mycobacterium marinum, UniProt B2HIZ6). Kind of series: Inhibition of recombinant MMNAT (DTNB assay). The class given is biochemical.
Series [4] deals with M. aurum (NCTC 10437). Also noted: method as in Gupta and Bhakta, 2012. The settings on record: ref Gupta and Bhakta, 2012; cited from earlier work.
For series [5], the system named is murine macrophage RAW 264.7 cell line. The settings on record: resazurin assay, 48 h incubation.
The test system of series [6] is M. aurum (NCTC 10437). Kind of series: HT-SPOTi growth inhibition (MIC), M. aurum. The following applies: Mycolicibacterium aurum, NCTC10437, 120 h; HT-SPOTi agar assay, 35 °C 5 days; read-out: MIC Mycobacterium aurum. It counts as cell-based.
Series [7] concerns M. bovis BCG (ATCC 35734). Briefly: microbe, parasite or virus in culture. The settings on record: Mycobacterium tuberculosis variant bovis BCG, 336 h, read-out: MIC Mycobacterium bovis BCG. It counts as cell-based.
For series [8], the system named is M. bovis BCG infected in THP-1 macrophages. Kind of series: microbe, parasite or virus in culture. The settings on record: for ex vivo MIC as multiple of MIC: M. bovis BCG in THP-1 macrophages; for MIC: Mycobacterium tuberculosis variant bovis BCG, BCG, 48 h, read-out: ex vivo MIC. It counts as cell-based, Mycobacterium bovis BCG.
Series [9] relates to human monocyte THP-1 cell line. The following applies: resazurin assay, 48 h incubation.
The next series concerns S. aureus (ATCC 25923). Briefly: HT-SPOTi growth inhibition (MIC), S. aureus. The following applies: 37 °C 16 h; for MIC: Staphylococcus aureus, ATCC25923, LB agar; for MIC Staphylococcus aureus: LB agar. It counts as cell-based, Staphylococcus aureus.
The subject of another series is E. coli (NCTC 10538). Kind of series: HT-SPOTi growth inhibition (MIC), E. coli. The settings on record: 37 °C 16 h; for MIC: Escherichia coli, NCTC10538, LB agar; for MIC Escherichia coli: LB agar. It counts as cell-based, Escherichia coli.
The mark [10] stands for this setting: hydralazine 450 µM, acetyl CoA 400 µM, extrapolated from linear regression, read-out: IC50 MMNAT.
Where [11] appears, read: value in brackets, same IC50 in mg/L, read-out: IC50 MMNAT.

We go through nine compounds from article PMC7400135, “3-(5-Nitrofuran-2-yl)prop-2-en-1-one Derivatives, with Potent Antituberculosis Activity, Inhibit A Novel Therapeutic Target, Arylamine N-acetyltransferase, in Mycobacteria” (Antibiotics, 2020).

SMILES strings stand for the structures. ≈ marks a conversion by molar mass, not a printed value. Where two headings read alike, the source gives them in different places. Marks after values point to notes of the source that are not given here.

Chain of recombinant Mycobacterium marinum N-acetyltransferase (MMNAT) (B2HIZ6 entry or part of it): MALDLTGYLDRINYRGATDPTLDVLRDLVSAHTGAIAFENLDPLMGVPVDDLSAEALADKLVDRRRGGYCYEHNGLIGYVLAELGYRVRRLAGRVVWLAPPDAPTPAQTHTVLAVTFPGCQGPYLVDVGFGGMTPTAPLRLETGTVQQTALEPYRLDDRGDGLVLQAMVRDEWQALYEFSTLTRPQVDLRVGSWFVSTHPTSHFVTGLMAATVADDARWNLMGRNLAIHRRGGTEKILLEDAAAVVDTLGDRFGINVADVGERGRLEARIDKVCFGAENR

In the case of `CC[C@@H](CO)NCCN[C@@H](CC)CO` [Ethambutol], in series [1], the MIC was found to be 2 µg/mL (≈ 9.79 µM). In series [2], the “MIC Mycobacterium bovis BCG” value was 2.00 ^# mg/L. The IC50 in series [3] (setting [10]) is above 1000 nM. Further, the “MIC Mycobacterium aurum” value in the series on M. aurum (NCTC 10437) [4] is reported as 0.10 ^# mg/L.

Regarding `O=[N+]([O-])c1cn2c(n1)OC[C@@H](OCc1ccc(OC(F)(F)F)cc1)C2` [Pretomanid], the MIC in [1] was 0.061 µg/mL (≈ 0.17 µM). The IC50 in series [3] (setting [10]) is above 1000 nM.

In the case of `CO[C@H]1/C=C/O[C@@]2(C)Oc3c(C)c(O)c4c(O)c(c(/C=N/N5CCN(C)CC5)c(O)c4c3C2=O)NC(=O)/C(C)=C\C=C\[C@H](C)[C@H](O)[C@@H](C)[C@@H](O)[C@@H](C)[C@H](OC(C)=O)[C@@H]1C` [Rifampicin], the MIC in series [1] was 0.125 µg/mL (≈ 0.152 µM). The “MIC Mycobacterium bovis BCG” value in series [2] is 0.50 ^# mg/L. Moreover, the IC50 in series [3] was above 1000 nM. Further, the “MIC Mycobacterium aurum” value with M. aurum (NCTC 10437) [4] is 0.40 ^# mg/L.

Regarding `NNC(=O)c1ccncc1` [Isoniazid, reference compound], in series [5], the “GIC RAW 264.7 Cell Line” value was “NA^a (not active until 500 mg/L concentration)”. Also, the MIC was 1.25 µg/mL (≈ 9.11 µM) in the series with M. aurum (NCTC 10437) [6], 0.625 µg/mL (≈ 4.56 µM) in series [7], 1.25 µg/mL (≈ 9.11 µM) in series [8] and 0.8 µg/mL (≈ 5.83 µM) in series [1]. For the same compound, the “ex vivo MIC as multiple of MIC” value in [8] worked out at 2 × MIC. Also, in series [9], the “GIC THP-1 Cell Line” value is given as “NA^a (not active until 500 mg/L concentration)”. In series [3] (setting [10]), the IC50 is above 1000 nM.

On to `CCN(CC)c1ccc(C(=O)/C=C/c2ccc([N+](=O)[O-])o2)cc1` [Compound 3], for which, in series [5], the “GIC RAW 264.7 Cell Line” value is on record as 31.25 mg/L. Moreover, the MIC with M. aurum (NCTC 10437) [6] was above 500 µg/mL; in series [7], 0.03 µg/mL (≈ 0.0954 µM); in series [1], 0.488 µg/mL (≈ 1.55 µM); in the series on S. aureus (ATCC 25923), 62.5 µg/mL (≈ 199 µM); against E. coli (NCTC 10538) it was 250 µg/mL (≈ 795 µM). The “GIC THP-1 Cell Line” value in [9] amounted to 15.6 mg/L. For the same compound, the IC50 in series [3] (setting [10]) and in [3] (setting [11]) was 134 nM throughout.

For `O=C(/C=C/c1ccc([N+](=O)[O-])o1)c1ccc(N2CCCCC2)cc1` [Compound 2], the “GIC RAW 264.7 Cell Line” value in series [5] turned out to be 125 mg/L. The MIC in the series with M. aurum (NCTC 10437) [6] was above 500 µg/mL; in series [7] it was 0.0075 µg/mL (≈ 0.023 µM); in [1] it was 0.031 µg/mL (≈ 0.095 µM); against S. aureus (ATCC 25923), above 500 µg/mL; against E. coli (NCTC 10538), above 500 µg/mL. Also, in series [9], the “GIC THP-1 Cell Line” value stood at 62.5 mg/L. For the same compound, the IC50 in [3] (setting [10]) is 269 nM; in [3] (setting [11]), 270 nM. Moreover, the “MIC Staphylococcus aureus” value against S. aureus (ATCC 25923) is “inactive”. Also, the “MIC Escherichia coli” value against E. coli (NCTC 10538) was “inactive”.

On to `O=C(/C=C/c1ccc([N+](=O)[O-])o1)c1ccc(N2CCOCC2)cc1` [Compound 1], for which, in [5], the “GIC RAW 264.7 Cell Line” value is 125 mg/L. Further, the MIC was above 500 µg/mL in the series with M. aurum (NCTC 10437) [6]; 0.06 µg/mL (≈ 0.183 µM) in series [7]; 0.24 µg/mL (≈ 0.731 µM) in series [8]; 0.244 µg/mL (≈ 0.743 µM) in [1]; above 500 µg/mL against S. aureus (ATCC 25923); above 500 µg/mL in the series with E. coli (NCTC 10538). Besides, the “ex vivo MIC as multiple of MIC” value in series [8] is reported as 4 × MIC. Also, the “GIC THP-1 Cell Line” value in series [9] is reported as 62.5 mg/L. Further, the IC50 in [3] (setting [10]) and in [3] (setting [11]) was 207 nM in each case. For the same compound, the “MIC Staphylococcus aureus” value in the series on S. aureus (ATCC 25923) was “inactive”. For the same compound, in the series on E. coli (NCTC 10538), the “MIC Escherichia coli” value is “inactive”.

`CN(Cc1cnc2nc(N)nc(N)c2n1)c1ccc(C(=O)N[C@@H](CCC(=O)O)C(=O)O)cc1` [Methotrexate, reference compound]: in [5], the “GIC RAW 264.7 Cell Line” value was 0.122 mg/L. The MIC is 500 µg/mL (≈ 1100 µM) in series [7] and above 500 µg/mL in [1]. For the same compound, the “GIC THP-1 Cell Line” value in series [9] was 0.975 mg/L.

For the compound `CC1(C)S[C@@H]2[C@H](NC(=O)[C@H](N)c3ccccc3)C(=O)N2[C@H]1C(=O)O` [Ampicillin, reference compound], the MIC in series [7] was above 500 µg/mL; in the series with S. aureus (ATCC 25923) it was 0.125 µg/mL (≈ 0.358 µM); with E. coli (NCTC 10538) it was 2 µg/mL (≈ 5.72 µM).
